Assay results from ChEMBL document CHEMBL1201862, “PubChem BioAssay data set” (2004).
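Protocol summary: plate cells (96-well), add compound at 5 concentrations, incubate 48 h, interpolate endpoints linearly. GI50 is the concentration that inhibits growth by half.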 Activity calls are given as the source filed them. No stated cut-off is given here; in the data, active = GI50 up to about 1.1 µM and inactive = higher.

Key:
Experiment in all cases: NCI anticancer screen, dose series, 48 h
[1] = test system: 786-0
[2] = test system: A498
[3] = test system: A549
[4] = test system: ACHN
[5] = test system: BT-549
[6] = test system: CAKI-1
[7] = test system: CCRF-CEM
[8] = test system: COLO 205
[9] = test system: DU-145
[10] = test system: EKVX
[11] = test system: HCT-116
[12] = test system: HCT-15
[13] = test system: HL-60
[14] = test system: HOP-62
[15] = test system: HOP-92
[16] = test system: HT-29
[17] = test system: Hs-578T
[18] = test system: IGROV-1
[19] = test system: K562
[20] = test system: KM12
[21] = test system: LOX IMVI
[22] = test system: M14
[23] = test system: MCF7
[24] = test system: MDA-MB-231
[25] = test system: MDA-MB-435
[26] = test system: MDA-N
[27] = test system: MOLT-4
[28] = test system: Malme-3M
[29] = test system: NCI-H226
[30] = test system: NCI-H23
[31] = test system: NCI-H522
[32] = test system: NCI/ADR-RES
[33] = test system: OVCAR-3
[34] = test system: OVCAR-4
[35] = test system: OVCAR-5
[36] = test system: OVCAR-8
[37] = test system: PC-3
[38] = test system: RPMI-8226
[39] = test system: SF-268
[40] = test system: SF-295
[41] = test system: SF-539
[42] = test system: SK-MEL-28
[43] = test system: SK-MEL-2
[44] = test system: SK-MEL-5
[45] = test system: SK-OV-3
[46] = test system: SN12C
[47] = test system: SNB-19
[48] = test system: SR
[49] = test system: SW-620
[50] = test system: T47D
[51] = test system: U-251
[52] = test system: UACC-62
[53] = test system: UO-31
[54] = test system: HCC 2998
[55] = test system: RXF 393
[56] = test system: TK-10
[57] = test system: UACC-257
[58] = test system: NCI-H460

C=CCN(C(=O)OC(C)(C)C)[C@H](C)C(=O)N[C@@H](C)C(=O)OC
GI50 [1]: > 100 µM (inactive)
GI50 [2]: > 100 µM (inactive)
GI50 [3]: > 100 µM (inactive)
GI50 [4]: > 100 µM (inactive)
GI50 [5]: > 100 µM (inactive)
GI50 [6]: > 100 µM (inactive)
GI50 [7]: 36 µM (inactive)
GI50 [8]: > 100 µM (inactive)
GI50 [9]: > 100 µM (inactive)
GI50 [10]: > 100 µM (inactive)
GI50 [11]: > 100 µM (inactive)
GI50 [12]: > 100 µM
GI50 [13]: 1.2 µM (inactive)
GI50 [14]: > 100 µM (inactive)
GI50 [15]: > 100 µM (inactive)
GI50 [16]: > 100 µM (inactive)
GI50 [17]: > 100 µM (inactive)
GI50 [18]: > 100 µM (inactive)
GI50 [19]: > 100 µM (inactive)
GI50 [20]: > 100 µM (inactive)
GI50 [21]: > 100 µM (inactive)
GI50 [22]: > 100 µM (inactive)
GI50 [23]: > 100 µM (inactive)
GI50 [24]: > 100 µM (inactive)
GI50 [25]: > 100 µM (inactive)
GI50 [26]: > 100 µM (inactive)
GI50 [27]: > 100 µM (inactive)
GI50 [28]: > 100 µM (inactive)
GI50 [29]: > 100 µM (inactive)
GI50 [30]: > 100 µM (inactive)
GI50 [31]: > 100 µM (inactive)
GI50 [32]: > 100 µM (inactive)
GI50 [33]: > 100 µM (inactive)
GI50 [34]: > 100 µM (inactive)
GI50 [35]: > 100 µM (inactive)
GI50 [36]: > 100 µM (inactive)
GI50 [37]: > 100 µM (inactive)
GI50 [38]: > 100 µM (inactive)
GI50 [39]: > 100 µM (inactive)
GI50 [40]: > 100 µM (inactive)
GI50 [41]: > 100 µM (inactive)
GI50 [42]: > 100 µM (inactive)
GI50 [43]: > 100 µM (inactive)
GI50 [44]: > 100 µM (inactive)
GI50 [45]: > 100 µM (inactive)
GI50 [46]: > 100 µM (inactive)
GI50 [47]: > 100 µM (inactive)
GI50 [48]: > 100 µM (inactive)
GI50 [49]: > 100 µM (inactive)
GI50 [50]: > 100 µM (inactive)
GI50 [51]: > 100 µM (inactive)
GI50 [52]: > 100 µM (inactive)
GI50 [53]: > 100 µM (inactive)

CN1CCCN(C)CCCN(C)CCCN(C)CCC1
GI50 [1]: > 100 µM (inactive)
GI50 [3]: > 100 µM (inactive)
GI50 [4]: > 100 µM (inactive)
GI50 [5]: > 100 µM (inactive)
GI50 [6]: > 100 µM (inactive)
GI50 [7]: > 100 µM (inactive)
GI50 [8]: > 100 µM (inactive)
GI50 [9]: > 100 µM (inactive)
GI50 [10]: > 100 µM (inactive)
GI50 [54]: > 100 µM (inactive)
GI50 [11]: > 100 µM (inactive)
GI50 [12]: > 100 µM
GI50 [14]: > 100 µM (inactive)
GI50 [16]: > 100 µM (inactive)
GI50 [17]: > 100 µM (inactive)
GI50 [18]: > 100 µM (inactive)
GI50 [19]: > 100 µM (inactive)
GI50 [20]: > 100 µM (inactive)
GI50 [22]: > 100 µM (inactive)
GI50 [23]: > 100 µM (inactive)
GI50 [24]: > 100 µM (inactive)
GI50 [25]: > 100 µM (inactive)
GI50 [26]: > 100 µM (inactive)
GI50 [27]: > 100 µM (inactive)
GI50 [28]: > 100 µM (inactive)
GI50 [29]: > 100 µM (inactive)
GI50 [30]: > 100 µM (inactive)
GI50 [31]: > 100 µM (inactive)
GI50 [32]: > 100 µM (inactive)
GI50 [33]: > 100 µM (inactive)
GI50 [34]: > 100 µM (inactive)
GI50 [35]: > 100 µM (inactive)
GI50 [36]: > 100 µM (inactive)
GI50 [37]: > 100 µM (inactive)
GI50 [38]: > 100 µM (inactive)
GI50 [55]: > 100 µM (inactive)
GI50 [39]: > 100 µM (inactive)
GI50 [40]: > 100 µM (inactive)
GI50 [42]: > 100 µM (inactive)
GI50 [43]: > 100 µM (inactive)
GI50 [44]: > 100 µM (inactive)
GI50 [45]: > 100 µM (inactive)
GI50 [47]: > 100 µM (inactive)
GI50 [48]: > 100 µM (inactive)
GI50 [49]: > 100 µM (inactive)
GI50 [50]: > 100 µM (inactive)
GI50 [56]: > 100 µM (inactive)
GI50 [51]: > 100 µM (inactive)
GI50 [57]: > 100 µM (inactive)
GI50 [52]: > 100 µM (inactive)
GI50 [53]: > 100 µM (inactive)

O=S(=O)(O)c1ccc2c(/N=N/c3ccc(Sc4ccc(/N=N/c5c(O)ccc6cc(S(=O)(=O)O)ccc56)cc4)cc3)c(O)ccc2c1
GI50 [1]: > 100 µM (inactive)
GI50 [3]: > 100 µM (inactive)
GI50 [4]: > 100 µM (inactive)
GI50 [5]: > 100 µM (inactive)
GI50 [6]: > 100 µM (inactive)
GI50 [7]: > 100 µM (inactive)
GI50 [8]: > 100 µM (inactive)
GI50 [9]: > 100 µM (inactive)
GI50 [10]: > 100 µM (inactive)
GI50 [54]: > 100 µM (inactive)
GI50 [11]: > 100 µM (inactive)
GI50 [12]: > 100 µM
GI50 [13]: > 100 µM (inactive)
GI50 [14]: > 100 µM (inactive)
GI50 [15]: > 100 µM (inactive)
GI50 [16]: > 100 µM (inactive)
GI50 [17]: > 100 µM (inactive)
GI50 [18]: > 100 µM (inactive)
GI50 [19]: > 100 µM (inactive)
GI50 [20]: > 100 µM (inactive)
GI50 [22]: > 100 µM (inactive)
GI50 [23]: > 100 µM (inactive)
GI50 [24]: > 100 µM (inactive)
GI50 [25]: > 100 µM (inactive)
GI50 [26]: > 100 µM (inactive)
GI50 [27]: > 100 µM (inactive)
GI50 [28]: > 100 µM (inactive)
GI50 [29]: > 100 µM (inactive)
GI50 [30]: > 100 µM (inactive)
GI50 [58]: > 100 µM (inactive)
GI50 [31]: > 100 µM (inactive)
GI50 [32]: > 100 µM (inactive)
GI50 [33]: > 100 µM (inactive)
GI50 [34]: > 100 µM (inactive)
GI50 [35]: > 100 µM (inactive)
GI50 [36]: > 100 µM (inactive)
GI50 [37]: > 100 µM (inactive)
GI50 [38]: > 100 µM (inactive)
GI50 [55]: > 100 µM (inactive)
GI50 [39]: > 100 µM (inactive)
GI50 [40]: > 100 µM (inactive)
GI50 [41]: > 100 µM (inactive)
GI50 [42]: > 100 µM (inactive)
GI50 [43]: > 100 µM (inactive)
GI50 [44]: > 100 µM (inactive)
GI50 [45]: > 100 µM (inactive)
GI50 [46]: > 100 µM (inactive)
GI50 [47]: > 100 µM (inactive)
GI50 [48]: > 100 µM (inactive)
GI50 [49]: > 100 µM (inactive)
GI50 [50]: > 100 µM (inactive)
GI50 [56]: > 100 µM (inactive)
GI50 [51]: > 100 µM (inactive)
GI50 [57]: > 100 µM (inactive)
GI50 [52]: > 100 µM (inactive)
GI50 [53]: > 100 µM (inactive)
